According to ChEMBL document CHEMBL1157461, “Potent non-nucleoside inhibitors of the measles virus RNA-dependent RNA polymerase complex” (J Med Chem, 2008):

Test system: not listed separately
Experiment: Selectivity index, ratio of CC50 for Vero cells to EC50 for Measles virus Leningrad 16
Assay type: toxicity, cell-based
Details: monkey, read-out: Ratio CC50/EC50
`NC(=O)c1ncn([C@@H]2O[C@H](CO)[C@@H](O)[C@H]2O)n1` [RIBAVIRIN] gave a selectivity ratio of 14.4.

Test system: Measles morbillivirus
Experiment: Antiviral activity against Measles virus Edmonston
Assay type: functional, organism-based
Details: not given
`NC(=O)c1ccc([N+](=O)[O-])cc1NC(=O)Cc1ccccc1` showed an EC50 of 0.6 µM.
`Nc1ccc(O)c(NC(=O)Cc2ccccc2)c1` gave an EC50 of 0.26 µM.
For `Cn1nc(C(F)(F)F)cc1C(=O)Nc1ccc(S(=O)(=O)N2CCCC2)cc1`, the EC50 was 0.25 µM.

Test system: Measles morbillivirus
Experiment: Antiviral activity against Measles virus Alaska in Vero cells assessed as inhibition of cytopathic effect
Assay type: functional, organism-based
Details: not given
In the case of `CC(C)CN(CC(C)C)S(=O)(=O)c1ccc(NC(=O)c2cc(C(F)(F)F)nn2C)cc1`, the EC50 is reported as greater than 13.8 µM.
`Cn1nc(C(F)(F)F)c(Br)c1C(=O)Nc1ccc(S(=O)(=O)N2CCCC2)cc1` showed an EC50 greater than 75 µM.
For `Cn1nc(C(F)(F)F)cc1C(=O)Nc1ccc(S(=O)(=O)N2CCC(O)CC2)cc1`, the EC50 was 6.8 µM.
Work on `Cn1nc(C(F)(F)F)cc1C(=O)Nc1ccc(S(=O)(=O)N2CCOCC2)cc1` yielded an EC50 of 43 µM.
For `C=CCN(CC=C)S(=O)(=O)c1ccc(NC(=O)c2cc(C(F)(F)F)nn2C)cc1`, the EC50 was 3.3 µM.
With `Cn1nc(C(F)(F)F)cc1C(=O)Nc1ccc(S(=O)(=O)N2CCC[C@H]2C(=O)O)cc1` the EC50 was 23 µM.
For `CCn1nc(C(F)(F)F)cc1C(=O)Nc1ccc(S(=O)(=O)N2CCCCC2C)cc1` (centres undefined), the EC50 was less than 2.3 µM.
`Cn1nc(C(F)(F)F)cc1C(=O)Nc1ccc(S(=O)(=O)N2CCCCC2)cc1` gave an EC50 of less than 2.3 µM.
Work on `O=C(O)c1ccccc1-n1nc(C(F)(F)F)cc1C(=O)Nc1ccc(S(=O)(=O)N2CCCC2)cc1` yielded an EC50 greater than 75 µM.
For `Cn1nc(C(F)(F)F)cc1C(=O)Nc1ccc(S(=O)(=O)N2CCNCC2)cc1`, the EC50 was 28 µM.
Compound `CCC1CCCCN1S(=O)(=O)c1ccc(NC(=O)c2cc(C(F)(F)F)nn2C)cc1` (centres undefined) has an EC50 of less than 2.3 µM.
`COC=C1CCN(S(=O)(=O)c2ccc(NC(=O)c3cc(C(F)(F)F)nn3C)cc2)CC1` showed an EC50 greater than 75 µM.
With `CC1CCCCN1S(=O)(=O)c1ccccc1NC(=O)c1cc(C(F)(F)F)nn1C` (centres undefined) the EC50 was greater than 75 µM.
`Cn1nc(C(F)(F)F)cc1C(=O)Nc1ccc(S(=O)(=O)N2CCCC(C(=O)O)C2)cc1` (centres undefined) gave an EC50 greater than 75 µM.
In the case of `CC1CCCCN1S(=O)(=O)c1ccc(NC(=O)c2cc(C(F)(F)F)nn2Cc2ccccc2)cc1` (centres undefined), the EC50 is reported as greater than 19 µM.
For `CN(C)S(=O)(=O)c1ccc(NC(=O)c2cc(C(F)(F)F)nn2C)cc1`, the EC50 was 6.3 µM.
With `Cn1nc(C(F)(F)F)cc1C(=O)Nc1ccc(S(=O)(=O)N2CCC(N)CC2)cc1` the EC50 was greater than 75 µM.
With `COC(=O)C1CCCCN1S(=O)(=O)c1ccc(NC(=O)c2cc(C(F)(F)F)nn2C)cc1` (centres undefined) the EC50 was 10 µM.

Test system: Measles morbillivirus
Experiment: Antiviral activity against Measles virus Alaska in Vero cells assessed as reduction of viral titer
Assay type: functional, organism-based
Details: not given
`Cn1nc(C(F)(F)F)cc1C(=O)Nc1ccc(S(=O)(=O)N2CCC(O)CC2)cc1` gave an EC50 of 0.57 µM.
In the case of `CCn1nc(C(F)(F)F)cc1C(=O)Nc1ccc(S(=O)(=O)N2CCCCC2C)cc1` (centres undefined), the EC50 is reported as 0.055 µM.
Work on `Cn1nc(C(F)(F)F)cc1C(=O)Nc1ccc(S(=O)(=O)N2CCCCC2)cc1` yielded an EC50 of 0.014 µM.
In the case of `O=C(O)c1ccccc1-n1nc(C(F)(F)F)cc1C(=O)Nc1ccc(S(=O)(=O)N2CCCC2)cc1`, the EC50 is reported as greater than 75 µM.
Work on `CCC1CCCCN1S(=O)(=O)c1ccc(NC(=O)c2cc(C(F)(F)F)nn2C)cc1` (centres undefined) yielded an EC50 of 0.087 µM.
With `CC1CCCCN1S(=O)(=O)c1ccc(NC(=O)c2cc(C(F)(F)F)nn2Cc2ccccc2)cc1` (centres undefined) the EC50 was greater than 19 µM.

Test system: not listed separately
Experiment: Cytotoxicity against african green monkey Vero cells by MTT assay
Assay type: cell-based
Details: chlorocebus sabaeus
`CC(C)CN(CC(C)C)S(=O)(=O)c1ccc(NC(=O)c2cc(C(F)(F)F)nn2C)cc1` showed a CC50 of 13.8 µM.
In the case of `Cn1nc(C(F)(F)F)c(Br)c1C(=O)Nc1ccc(S(=O)(=O)N2CCCC2)cc1`, the CC50 is reported as 95 µM.
In the case of `Cn1nc(C(F)(F)F)cc1C(=O)Nc1ccc(S(=O)(=O)N2CCC(O)CC2)cc1`, the CC50 is reported as 274 µM.
Work on `Cn1nc(C(F)(F)F)cc1C(=O)Nc1ccc(S(=O)(=O)N2CCOCC2)cc1` yielded a CC50 greater than 300 µM.
Work on `C=CCN(CC=C)S(=O)(=O)c1ccc(NC(=O)c2cc(C(F)(F)F)nn2C)cc1` yielded a CC50 of 34 µM.
`Cn1nc(C(F)(F)F)cc1C(=O)Nc1ccc(S(=O)(=O)N2CCC[C@H]2C(=O)O)cc1` gave a CC50 greater than 300 µM.
For `CCn1nc(C(F)(F)F)cc1C(=O)Nc1ccc(S(=O)(=O)N2CCCCC2C)cc1` (centres undefined), the CC50 was 30 µM.
In the case of `Cn1nc(C(F)(F)F)cc1C(=O)Nc1ccc(S(=O)(=O)N2CCCCC2)cc1`, the CC50 is reported as greater than 300 µM.
With `CCC1CCCCN1S(=O)(=O)c1ccc(NC(=O)c2cc(C(F)(F)F)nn2C)cc1` (centres undefined) the CC50 was greater than 300 µM.
`COC=C1CCN(S(=O)(=O)c2ccc(NC(=O)c3cc(C(F)(F)F)nn3C)cc2)CC1` showed a CC50 of 92 µM.
With `CC1CCCCN1S(=O)(=O)c1ccccc1NC(=O)c1cc(C(F)(F)F)nn1C` (centres undefined) the CC50 was greater than 300 µM.
Compound `Cn1nc(C(F)(F)F)cc1C(=O)Nc1ccc(S(=O)(=O)N2CCCC(C(=O)O)C2)cc1` (centres undefined) has a CC50 greater than 300 µM.
`CN(C)S(=O)(=O)c1ccc(NC(=O)c2cc(C(F)(F)F)nn2C)cc1` showed a CC50 greater than 300 µM.
In the case of `Cn1nc(C(F)(F)F)cc1C(=O)Nc1ccc(S(=O)(=O)N2CCC(N)CC2)cc1`, the CC50 is reported as greater than 300 µM.
`COC(=O)C1CCCCN1S(=O)(=O)c1ccc(NC(=O)c2cc(C(F)(F)F)nn2C)cc1` (centres undefined) showed a CC50 of 136 µM.

Test system: not listed separately
Experiment: Cytotoxicity against african green monkey Vero cells by trypan blue exclusion assay
Assay type: cell-based
Details: chlorocebus sabaeus
`O=C(O)c1ccccc1-n1nc(C(F)(F)F)cc1C(=O)Nc1ccc(S(=O)(=O)N2CCCC2)cc1` showed a CC50 greater than 300 µM.
With `CCC1CCCCN1S(=O)(=O)c1ccc(NC(=O)c2cc(C(F)(F)F)nn2C)cc1` (centres undefined) the CC50 was 14 µM.
`CC1CCCCN1S(=O)(=O)c1ccc(NC(=O)c2cc(C(F)(F)F)nn2Cc2ccccc2)cc1` (centres undefined) gave a CC50 of 19 µM.

Test system: not listed separately
Experiment: (§1) Selectivity index, ratio of CC50 for african green monkey Vero cells to EC50 for Measles virus Alaska
Assay type: toxicity, cell-based
Details: read-out: Ratio CC50/EC50
`Cn1nc(C(F)(F)F)c(Br)c1C(=O)Nc1ccc(S(=O)(=O)N2CCCC2)cc1` gave a selectivity ratio of less than 1.3.
Compound `Cn1nc(C(F)(F)F)cc1C(=O)Nc1ccc(S(=O)(=O)N2CCCCC2)cc1` has a selectivity ratio greater than 130.

Test system: not listed separately
Experiment: as §1
Assay type: toxicity, cell-based
Details: read-out: Ratio CC50/EC50
Work on `Cn1nc(C(F)(F)F)cc1C(=O)Nc1ccc(S(=O)(=O)N2CCCCC2)cc1` yielded a selectivity ratio of 14200.
